Test results published in US10285400B2, “Disinfectant composition containing quaternary ammonium compounds” (LONZA, INC., priority 2014, dated 2019).

Experiments:
[1] = tested on: Pseudomonas aeruginosa (Pa); assay: OECD Quantitative Method for Evaluating Bacterial Activity of Microbiocides Used on Hard Non-Porous Surfaces; format: cell-based; settings: diluted with 375 ppm hard water, test concentration as in test composition
From the text: (§1) Bardac 2250, containing of 50% didecyldimethylammonium chloride and 10% ethanol from Lonza, was used for the formulations.

[2] = tested on: Staphylococcus aureus (Sa); assay: as above; format: cell-based; settings: diluted with 375 ppm hard water, test concentration as in test composition
From the text: as §1

Compound | # Log Reduc. 5 min contact Pa [1] | # Log Reduc. 5 min contact Sa [2]
CCCCCCCCCC[N+](C)(C)CCCCCCCCCC.[Cl-] [Sample 3, didecyldimethylammonium chloride] | 3.3 Log | 
OO [hydrogen peroxide] | ineffective | ineffective
OO [Sample 2, hydrogen peroxide] | 1.8 Log | 3.2 Log
OO [Sample 1, hydrogen peroxide] | 1.6 Log | 0.3 Log
CCCCCCCCCC[N+](C)(C)CCCCCCCCCC.[Cl-] [Bardac 22, didecyldimethylammonium chloride] | ineffective | ineffective
